Laboratory results: ChEMBL document CHEMBL1123432, “Methotrexate analogues. 28. Synthesis and biological evaluation of new gamma-monoamides of aminopterin and methotrexate” (J Med Chem, 1986)

What was measured:
[1] = species on record: Homo sapiens; assay: Compound was tested for its inhibitory concentration against human leukemic lymphoblasts (CEM Cells); assay type: functional; settings: CCRF-CEM
[2] = species on record: Homo sapiens; assay: Compound was tested for its inhibitory concentration against human leukemic lymphoblasts (CEM Cells) and a resistant subline (CEM / MTX).; assay type: functional; settings: CCRF-CEM
[3] = tested on: L1210; assay: Compound was tested for its inhibitory concentration to inhibit the growth of wild type L1210 cells.; assay type: functional, cell-based, Mus musculus
[4] = tested on: Mus musculus; assay: Increase in life span of mice with L1210 leukemia cells at a dose of 0.5 mg/kg; assay type: functional
[5] = tested on: Mus musculus; assay: Increase in life span of mice with L1210 leukemia cells at a dose of 1 mg/kg; assay type: functional
[6] = tested on: Mus musculus; assay: Median Survival days of mice infected with L1210 leukemia cells at dose 0.5 mg/kg relative to that of 9 days for control; assay type: functional
[7] = tested on: Mus musculus; assay: Median Survival days of mice infected with L1210 leukemia cells at dose 1 mg/kg relative to that of 9 days for control; assay type: functional
[8] = species on record: Mus musculus; assay: Compound was tested against weight change in mice with L1210 leukemia cells on 7 th Day at Dose 0.5 mg / kg; assay type: functional; settings: at 0.5 mg/kg
[9] = species on record: Mus musculus; assay: Compound was tested against weight change in mice with L1210 leukemia cells on 7 th Day at Dose 1 mg / kg; assay type: functional; settings: at 1 mg/kg
[10] = target: T1, Dihydrofolate reductase (Mus musculus) (UniProt P00375); settings: L1210
T1 sequence (whole entry): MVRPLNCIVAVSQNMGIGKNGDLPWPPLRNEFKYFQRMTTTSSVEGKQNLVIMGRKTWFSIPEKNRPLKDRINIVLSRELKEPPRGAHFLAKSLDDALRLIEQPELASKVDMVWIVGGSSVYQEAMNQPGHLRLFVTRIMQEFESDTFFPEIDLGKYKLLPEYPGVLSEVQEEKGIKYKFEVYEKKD
Description: Compound was tested for inhibition of the enzyme DiHydroFolate Reductase (DHFR) from murine L1210 leukemia cells

[11] = target: T2, Dihydrofolate reductase (Mus musculus, UniProt P00375); assay: biochemical
T2 sequence (P00375 whole entry): T1 sequence (whole entry)
Description: Compound was tested for its inhibitory concentration to inhibit the enzyme Dihydro Folate Reductase (DHFR) from murine L1210 leukemia cells.

[12] = species on record: Homo sapiens; assay: Compound was tested for its inhibitory concentration against human leukemic lymphoblasts ( CEM Cells ).; assay type: functional; settings: CCRF-CEM
[13] = tested on: L1210; assay: Compound was tested for its inhibitory concentration to inhibit the growth of wild type L1210 cells and a subline ( L1210 / R81 ).; assay type: functional, cell-based; settings: Mus musculus
[14] = tested on: Mus musculus; assay: Increase in life span of mice with L1210 leukemia cells at a dose of 80 mg/kg; Toxic; assay type: functional, organism-based; design: dose 80 mg/kg
[15] = tested on: Mus musculus; assay: Increase in life span of mice with L1210 leukemia cells at a dose of 20 mg/kg; assay type: functional
[16] = tested on: Mus musculus; assay: Increase in life span of mice with L1210 leukemia cells at a dose of 40 mg/kg; assay type: functional
[17] = tested on: Mus musculus; assay: Median Survival days of mice infected with L1210 leukemia cells at dose 20 mg/kg relative to that of 9 days for control; assay type: functional
[18] = tested on: Mus musculus; assay: Median Survival days of mice infected with L1210 leukemia cells at dose 40 mg/kg relative to that of 9 days for control; assay type: functional
[19] = tested on: Mus musculus; assay: Median Survival days of mice infected with L1210 leukemia cells at dose 80 mg/kg relative to that of 9 days for control; Toxic; assay type: functional, organism-based; design: dose 80 mg/kg
[20] = species on record: Mus musculus; assay: Compound was tested against weight change in mice with L1210 leukemia cells on 10 th Day at Dose 80 mg / kg; settings: at 80 mg/kg
[21] = species on record: Mus musculus; assay: Compound was tested against weight change in mice with L1210 leukemia cells on 10 th Day at Dose 20 mg / kg; settings: at 20 mg/kg
[22] = species on record: Mus musculus; assay: Compound was tested against weight change in mice with L1210 leukemia cells on 10 th Day at Dose 40 mg / kg; settings: at 40 mg/kg

## Nc1nc(N)c2nc(CNc3ccc(C(=O)N[C@@H](CCC(=O)O)C(=O)O)cc3)cnc2n1 [AMINOPTERIN]
[1]
  IC50: 1 nM
[2]
  IC50: 320 nM
[3]; Mus musculus, L1210
  IC50: 3 nM
[4]
  ILS at 0.5 mg/kg: 89%
[5]
  ILS at 1 mg/kg: 122%
[6]
  Survival: 17 days
[7]
  Survival: 20 days
[8]
  Weight change: -4%
[9]
  Weight change: -5%
[10]
  IC50/[E]: 0.5
[11]
  IC50: 20 nM

## Nc1nc(N)c2nc(CNc3ccc(C(=O)NC(CCC(=O)NCc4ccccc4)C(=O)O)cc3)cnc2n1 (configuration not stated)
[12]
  IC50: 65 nM
[2]
  IC50: 6000 nM
[3]; Mus musculus, L1210
  IC50: 5 nM
[3]; l1210
  IC50: 7.1 nM
[13]
  IC50: 17000 nM
[14]
  ILS: Toxic
[15]
  ILS at 20 mg/kg: 33%
[16]
  ILS at 40 mg/kg: 56%
[17]
  Survival: 12 days
[18]
  Survival: 14 days
[19]
  Survival: Toxic
[10]
  IC50/[E]: 2.2
[11]
  IC50: 87 nM
[20]
  Weight change: -26%
[21]
  Weight change: 13%
[22]
  Weight change: 3%
